These compounds were tested against T1, human TGR5 (Homo sapiens, UniProt Q8TDU6) (assay: Cell-based TGR5 assay (cAMP generation, HTRF)). Settings: HEK293 cells stably transfected with human TGR5; cAMP by HTRF; 30 minutes at 37° C.; read-out: pEC50 Human TGR5 (converted).
T1 construct: expressed in transfected cells; host or cells: HEK293
T1 sequence (Q8TDU6 1-330): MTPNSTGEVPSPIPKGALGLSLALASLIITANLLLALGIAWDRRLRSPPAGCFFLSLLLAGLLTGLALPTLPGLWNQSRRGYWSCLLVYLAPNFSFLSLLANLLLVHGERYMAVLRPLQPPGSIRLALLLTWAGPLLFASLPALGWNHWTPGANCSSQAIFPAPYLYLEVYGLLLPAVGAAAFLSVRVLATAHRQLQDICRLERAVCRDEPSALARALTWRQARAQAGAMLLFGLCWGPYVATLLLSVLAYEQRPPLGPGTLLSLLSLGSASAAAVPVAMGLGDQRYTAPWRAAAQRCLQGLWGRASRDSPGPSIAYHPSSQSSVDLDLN
Summary of the method: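 Read-out was HTRF detection of cAMP, converted to concentration via a standard curve and fitted (3-parameter logistic) for pEC50 and maximal response. Agonist stimulation used HEK293 cells stably transfected with human TGR5, incubated 30 min at 37° C in IBMX-containing buffer at 0.05 nM to 10 μM compound.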

Q: With `Clc1ccc(Cl)c(COC2(c3cnccc3-c3ccccc3OC3CC3)CCCC2)c1` [Compound I-742, 4-(2-cyclopropoxyphenyl)-3-(1-((2,5-dichlorobenzyl)oxy)cyclopentyl)pyridine] as the compound, how does the EC50 read?
A: 126 to 1000 nM

Q: How did the EC50 turn out when `Cc1ccc(C(C)CCCC(=O)N(CC(=O)N(C)C)C[C@H](O)[C@@H](O)[C@H](O)[C@H](O)CO)cc1CNC1(c2cnccc2-c2ccccc2OC2CC2)CC1` (stereo partly drawn) [Compound I-364, 5-{3-[({1-[4-(2-cyclopropoxyphenyl)pyridin-3-yl]cyclopropyl}amino)methyl]-4-methylphenyl}-N-[(dimethylcarbamoyl)methyl]-N-[(2S,3R,4R,5R)-2,3,4,5,6-pentahydroxyhexyl]hexanamide] was run?
A: 126 to 1000 nM

Q: How did the EC50 turn out when `Cc1cc(COC2(c3cnccc3-c3ccccc3OC3CC3)CC2)c(Cl)cc1CCCCC(=O)N(C)C[C@H](O)[C@@H](O)[C@H](O)[C@H](O)CO` [Compound I-146, 5-[5-chloro-4-({1-[4-(2-cyclopropoxyphenyl)pyridin-3-yl]cyclopropoxy}methyl)-2-methylphenyl]-N-methyl-N-[(2S,3R,4R,5R)-2,3,4,5,6-pentahydroxyhexyl]pentanamide] was run?
A: < 100 nM

Q: How did the EC50 turn out when `CC(CCCC(=O)N1CCN(CC(=O)NC[C@H](O)[C@@H](O)[C@H](O)[C@H](O)CO)CC1)c1ccc(Cl)c(CNC2(c3cnccc3-c3ccccc3OC3CC3)CC2)c1` (stereo partly drawn) [Compound I-321, 2-[4-(5-{4-chloro-3-[({1-[4-(2-cyclopropoxyphenyl)pyridin-3-yl]cyclopropyl}amino)methyl]phenyl}hexanoyl)piperazin-1-yl]-N-[(2S,3R,4R,5R)-2,3,4,5,6-pentahydroxyhexyl]acetamide] was run?
A: < 100 nM

Q: How did the EC50 turn out when `O=C(NC[C@H](O)[C@@H](O)[C@H](O)[C@H](O)CO)[C@H]1CC[C@H](NS(=O)(=O)c2ccc(Cl)c(COC3(c4cnccc4-c4ccccc4OC4CC4)CC3)c2)CC1` [Compound I-442, (1r,4r)-4-[4-chloro-3-({1-[4-(2-cyclopropoxyphenyl)pyridin-3-yl]cyclopropoxy}methyl)benzenesulfonamido]-N-[(2S,3R,4R,5R)-2,3,4,5,6-pentahydroxyhexyl]cyclohexane-1-carboxamide] was run?
A: < 100 nM

Q: With `COCCN(CCCCNC(=O)N[C@@H](CO)[C@@H](O)[C@H](O)[C@H](O)CO)S(=O)(=O)c1ccc(Cl)c(COC2(c3cnccc3-c3ccccc3OC3CC3)CC2)c1` [Compound I-416, 1-{4-[N-(2-methoxyethyl)4-chloro-3-({1-[4-(2-cyclopropoxyphenyl)pyridin-3-yl]cyclopropoxy}methyl)benzenesulfonamido]butyl}-3-[(2S,3R,4S,5R)-1,3,4,5,6-pentahydroxyhexan-2-yl]urea] as the compound, how does the EC50 read?
A: < 100 nM

Q: `CNC(=O)CN(C[C@H](O)[C@@H](O)[C@H](O)[C@H](O)CO)C(=O)CCCC(C)c1ccc(Cl)c(CNC2(c3cnccc3-c3ccccc3OC3CC3)CC2)c1` (stereo partly drawn) [Compound I-336, 5-{4-chloro-3-[({1-[4-(2-cyclopropoxyphenyl)pyridin-3-yl]cyclopropyl}amino)methyl]phenyl}-N-[(methylcarbamoyl)methyl]-N-[(2S,3R,4R,5R)-2,3,4,5,6-pentahydroxyhexyl]hexanamide] was tested. Which EC50 did it give?
A: < 100 nM

Q: How did the EC50 turn out when `CC(C)N(CCCCNC(=O)N[C@@H](CO)[C@@H](O)[C@H](O)[C@H](O)CO)S(=O)(=O)c1ccc(Cl)c(CNC(C)(C)c2cnccc2-c2ccccc2OC2CC2)c1` [Compound I-754, 4-chloro-3-(((2-(4-(2-cyclopropoxyphenyl)pyridin-3-yl)propan-2-yl)amino)methyl)-N-isopropyl-N-(4-(3-((2S,3R,4S,5R)-1,3,4,5,6-pentahydroxyhexan-2-yl)ureido)butyl) benzenesulfonamide] was run?
A: < 100 nM

Q: `Cc1ccc(C(C)CCCC(=O)N(CCC(=O)N(C)C)C[C@H](O)[C@@H](O)[C@H](O)[C@H](O)CO)cc1CNC1(c2cnccc2-c2ccccc2OC2CC2)CC1` (stereo partly drawn) [Compound I-366, 5-{3-[({1-[4-(2-cyclopropoxyphenyl)pyridin-3-yl]cyclopropyl}amino)methyl]-4-methylphenyl}-N-[2-(dimethylcarbamoyl)ethyl]-N-[(2S,3R,4R,5R)-2,3,4,5,6-pentahydroxyhexyl]hexanamide] was tested. Which EC50 did it give?
A: 126 to 1000 nM

Q: `C[C@@H](CCCCNC(=O)N[C@@H](CO)[C@@H](O)[C@H](O)[C@H](O)CO)c1ccc(Cl)c(COC2(c3cnccc3-c3ccccc3OC3CC3)CC2)c1` [Compound I-263] was tested. Which EC50 did it give?
A: < 100 nM

Q: `Cc1ccc(CCCCC(=O)NC[C@H](O)[C@@H](O)[C@H](O)[C@H](O)CO)cc1CNC1(c2cnccc2-c2ccccc2OC2CC2)CC1` (stereo in doubt) [Compound I-237, 5-{3-[({1-[4-(2-cyclopropoxyphenyl)pyridin-3-yl]cyclopropyl}amino)methyl]-4-methylphenyl}-N-[(2S,3R,4R,5R)-2,3,4,5,6-pentahydroxyhexyl]pentanamide] was tested. Which EC50 did it give?
A: 126 to 1000 nM

Q: With `CN1CCCN(S(=O)(=O)c2ccc(Cl)c(COC3(c4cnccc4-c4ccccc4OC4CC4)CC3)c2)CC1` [Compound I-769, 1-((4-chloro-3-((1-(4-(2-cyclopropoxyphenyl)pyridin-3-yl)cyclopropoxy)methyl)phenyl)sulfonyl)-4-methyl-1,4-diazepane] as the compound, how does the EC50 read?
A: 126 to 1000 nM

Q: `O=C(NCCCCNC(=O)NCCOCCSc1ccc(Cl)c(COC2(c3cnccc3-c3ccccc3OC3CC3)CC2)c1)NCCOCCSc1ccc(Cl)c(COC2(c3cnccc3-c3ccccc3OC3CC3)CC2)c1` [Compound I-638, 3-[2-(2-{[4-chloro-3-({1-[4-(2-cyclopropoxyphenyl)pyridin-3-yl]cyclopropoxy}methyl)phenyl]sulfanyl}ethoxy)ethyl]-1-[4-({[2-(2-{[4-chloro-3-({1-[4-(2-cyclopropoxyphenyl)pyridin-3-yl]cyclopropoxy}methyl)phenyl]sulfanyl}ethoxy)ethyl]carbamoyl}amino)butyl]urea] was tested. Which EC50 did it give?
A: 126 to 1000 nM

Q: With `Clc1ccc(Cl)c(CNC2(c3cnccc3-c3ccccc3OC3CC3)CC2)c1` [Compound I-1, 1-[4-(2-cyclopropoxyphenyl)pyridin-3-yl]-N-[(2,5-dichlorophenyl)methyl]cyclopropan-1-amine] as the compound, how does the EC50 read?
A: < 100 nM

Q: With `Cc1cc(COC2(c3cnccc3-c3ccccc3OC3CC3)CC2)c(C)cc1CCCCC(=O)N(C)C[C@H](O)[C@@H](O)[C@H](O)[C@H](O)CO` [Compound I-230, 5-[4-({1-[4-(2-cyclopropoxyphenyl)pyridin-3-yl]cyclopropoxy}methyl)-2,5-dimethylphenyl]-N-methyl-N-[(2S,3R,4R,5R)-2,3,4,5,6-pentahydroxyhexyl]pentanamide] as the compound, how does the EC50 read?
A: < 100 nM

Q: For `O=CN(CCCCc1cc(Cl)c(COC2(c3cnccc3-c3ccccc3OC3CC3)CC2)cc1Cl)C[C@H](O)[C@@H](O)[C@H](O)[C@H](O)CO` [Compound I-80, N-(4-(2,5-dichloro-4-((1-(4-(2-cyclopropoxyphenyl)pyridin-3-yl)cyclopropoxy)methyl)phenyl)butyl)-N-((2S,3R,4R,5R)-2,3,4,5,6-pentahydroxyhexyl)formamide], which EC50 is on record?
A: < 100 nM

Q: With `CC(C)(CC(=O)O)CC(=O)N(CCCCc1cc(Cl)c(COC2(c3cnccc3-c3ccccc3OC3CC3)CC2)cc1Cl)C[C@H](O)[C@@H](O)[C@H](O)[C@H](O)CO` [Compound I-196, 4-({4-[2,5-dichloro-4-({1-[4-(2-cyclopropoxyphenyl)pyridin-3-yl]cyclopropoxy}methyl)phenyl]butyl}[(2S,3R,4R,5R)-2,3,4,5,6-pentahydroxyhexyl]carbamoyl)-3,3-dimethylbutanoic acid] as the compound, how does the EC50 read?
A: 126 to 1000 nM

Q: For `CNC(=O)CN(C[C@H](O)[C@@H](O)[C@H](O)[C@H](O)CO)C(=O)CCCCc1cc(Cl)c(COC2(c3cnccc3-c3ccccc3OC3CC3)CC2)cc1Cl` (stereo in doubt) [Compound I-219, 5-[2,5-dichloro-4-({1-[4-(2-cyclopropoxyphenyl)pyridin-3-yl]cyclopropoxy}methyl)phenyl]-N-[(methylcarbamoyl)methyl]-N-[(2S,3R,4R,5R)-2,3,4,5,6-pentahydroxyhexyl]pentanamide], which EC50 is on record?
A: < 100 nM

Q: `CC(CCCCNC(=O)NC[C@H](O)[C@@H](O)[C@H](O)[C@H](O)CO)c1ccc(Cl)c(CNC2(c3cnccc3-c3ccccc3OC3CC3)CC2)c1` (stereo partly drawn) [Compound I-267, 1-(5-{4-chloro-3-[({1-[4-(2-cyclopropoxyphenyl)pyridin-3-yl]cyclopropyl}amino)methyl]phenyl}hexyl)-3-[(2S,3R,4R,5R)-2,3,4,5,6-pentahydroxyhexyl]urea] was tested. Which EC50 did it give?
A: < 100 nM

Q: `CSc1ccccc1-c1ccncc1C1(NCc2cc(Cl)ccc2Cl)CC1` [Compound I-7, N-[(2,5-dichlorophenyl)methyl]-1-{4-[2-(methylsulfanyl)phenyl]pyridin-3-yl}cyclopropan-1-amine] was tested. Which EC50 did it give?
A: 126 to 1000 nM

Q: `CC(C)N(CCCCNC(=O)NC[C@H](O)[C@@H](O)[C@H](O)[C@H](O)CO)S(=O)(=O)c1ccc(Cl)c(COC2(c3cnccc3-c3ccccc3OC3CC3)CCC2)c1` [Compound I-747, 4-chloro-3-((1-(4-(2-cyclopropoxyphenyl)pyridin-3-yl)cyclobutoxy)methyl)-N-isopropyl-N-(4-(3-((2S,3R,4R,5R)-2,3,4,5,6-pentahydroxyhexyl)ureido)butyl)benzenesulfonamide] was tested. Which EC50 did it give?
A: < 100 nM

Q: Which EC50 does the source give for `O=C([C@@H](O)[C@@H](O)[C@H](O)[C@@H](O)CO)N(CCCSc1ccc(Cl)c(COC2(c3cnccc3-c3ccccc3OC3CC3)CC2)c1)C1CCS(=O)(=O)CC1` [Compound I-556, (2S,3S,4R,5S)-N-(3-{[4-chloro-3-({-[4-(2-cyclopropoxyphenyl)pyridin-3-yl]cyclopropoxy}methyl)phenyl]sulfanyl}propyl)-N-(1,1-dioxo-1λ^6-thian-4-yl)-2,3,4,5,6-pentahydroxyhexanamide] here?
A: 126 to 1000 nM

Reference: patent publication US12084472B2 (Ardelyx, Inc., priority 2015, dated 2024)
